This note sets out measurements from patent US20110196383A1, “Atherosclerotic Plaque Dissolution Composition” (Atherolysis Medical, Inc, priority 2009, published 2011).

This assay relates to atherosclerotic plaque of an atherosclerotic cadaveric superficial femoral artery. As to the kind of experiment: ex vivo dissolution of atherosclerotic plaque in cadaveric superficial femoral artery. The arrangement: species or system human. As to conditions: for dissolution of atherosclerotic plaque: exposure about ten minutes to about thirty minutes.
Setting [1] is: about 99.9% by weight in the chemical composition, about 0.1% base composition.
Setting [2] is: about 98% by weight in the chemical composition, about 2% base composition.
Setting [3] is: about 90% by weight, about 10% base composition.
Setting [4] is: about 20% by weight, about 80% base composition such as normal saline.
[5] abbreviates: about 2.5% by weight, about 97% base composition.

“Also recorded” adds a separate entry of the source.

For `CC(O)CO` (centres unmarked) [propylene glycol], under setting [1], the “dissolution of atherosclerotic plaque” value is recorded as “showed effectiveness in dissolving atherosclerotic plaque; also recorded: dissolution of atherosclerotic plaque was noted”.

As for `CO` [methanol], the “dissolution of atherosclerotic plaque” value under setting [1] is “showed effectiveness in dissolving atherosclerotic plaque; also recorded: dissolution of atherosclerotic plaque was noted”.

Turning to `CCO` [ethanol], the “dissolution of atherosclerotic plaque” value (about 94% by weight, about 6% base composition) is “dissolution of atherosclerotic plaque was noted”. For the same compound, for the setting “concentration of about 94% to about 96%”, the “effectiveness in dissolving atherosclerotic plaque” value is “showed effectiveness in dissolving atherosclerotic plaque”.

As for `Oc1ccc(/C=C/c2cc(O)cc(O)c2)cc1` [resveratrol, 3,5,4′-trihydroxy-trans-stilbene], for the setting “dissolved in water or an organic solvent in a concentration of about 0.1% to about 99.9%”, the “effectiveness in dissolving atherosclerotic plaque” value is “showed effectiveness in dissolving atherosclerotic plaque”.

As for `Cc1ccccc1` [toluene], the “dissolution of atherosclerotic plaque” value (about 40% by weight, about 60% base composition) is recorded as “showed effectiveness in dissolving atherosclerotic plaque; also recorded: dissolution of atherosclerotic plaque was noted”.

Consider `CCCCCCCC(=O)O` [octanoic acid], for which, under setting [2], the “dissolution of atherosclerotic plaque” value is “showed effectiveness in dissolving atherosclerotic plaque; also recorded: dissolution of atherosclerotic plaque was noted”.

Turning to `S=C=S` [carbon disulfide], under setting [3], the “dissolution of atherosclerotic plaque” value was “showed effectiveness in dissolving atherosclerotic plaque; also recorded: dissolution of atherosclerotic plaque was noted”.

For `O=C1[C@H](CC[C@H](O)c2ccc(F)cc2)[C@@H](c2ccc(O)cc2)N1c1ccc(F)cc1` [ezetimibe, reference compound], under setting [4], the “dissolution of atherosclerotic plaque” value is on record as “dissolution of atherosclerotic plaque was noted”.

Turning to `ClC(Cl)Cl` [chloroform], under “about 95% by weight, about 5% base composition”, the “dissolution of atherosclerotic plaque” value is listed as “showed effectiveness in dissolving atherosclerotic plaque; also recorded: dissolution of atherosclerotic plaque was noted”.

Consider `CC(=O)Oc1ccccc1C(=O)O` [acetylsalicylic acid, reference compound], for which the “dissolution of atherosclerotic plaque” value (about 12% by weight in the chemical composition, about 88% base composition) was “showed effectiveness in dissolving atherosclerotic plaque; also recorded: dissolution of atherosclerotic plaque was noted”.

For the compound `CC(C)c1nc(N(C)S(C)(=O)=O)nc(-c2ccc(F)cc2)c1/C=C/[C@@H](O)C[C@@H](O)CC(=O)O` [rosuvastatin, reference compound], the “dissolution of atherosclerotic plaque” value under setting [4] is on record as “dissolution of atherosclerotic plaque was noted”.

For the compound `O=C(O)[C@H](O)[C@@H](O)[C@H](O)[C@H](O)CO` [gluconic acid], the “dissolution of atherosclerotic plaque” value (about 80% by weight, about 20% base composition) is “dissolution of atherosclerotic plaque was noted”.

In the case of `C=C(C)[C@H]1CC=C(C)CC1` [d-limonene], the “dissolution of atherosclerotic plaque” value under setting [2] was “showed effectiveness in dissolving atherosclerotic plaque; also recorded: dissolution of atherosclerotic plaque was noted”.

With `CC(O)C(=O)O` (centres unmarked) [lactic acid], the “dissolution of atherosclerotic plaque” value under setting [2] was “dissolution of atherosclerotic plaque was noted”.

As for `Oc1ccc(/C=C/c2cc(O)cc(O)c2)cc1` [trans-resveratrol], under setting [5], the “dissolution of atherosclerotic plaque” value is recorded as “dissolution of atherosclerotic plaque was noted”.

Take `Oc1ccc(/C=C\c2cc(O)cc(O)c2)cc1` [cis-resveratrol]: the “dissolution of atherosclerotic plaque” value under setting [5] is “dissolution of atherosclerotic plaque was noted”.

Turning to `OCC(O)CO` [glycerine], the “dissolution of atherosclerotic plaque” value (about 100% by weight in the chemical composition) is listed as “showed effectiveness in dissolving atherosclerotic plaque; also recorded: dissolution of atherosclerotic plaque was noted”.

Regarding `CCCCCCCCCCCC[N+](C)(C)CC(O)CS(=O)(=O)[O-]` (centres unmarked) [lauryldimethyl hydroxysultaine], the “dissolution of atherosclerotic plaque” value under setting [3] is recorded as “dissolution of atherosclerotic plaque was noted”.

For `CC(=O)O` [acetic acid], the “dissolution of atherosclerotic plaque” value (about 50% by weight, about 50% base composition) is on record as “dissolution of atherosclerotic plaque was noted”.

Consider 2-octane [Example 2-octane], for which, under setting [2], the “dissolution of atherosclerotic plaque” value is on record as “showed effectiveness in dissolving atherosclerotic plaque; also recorded: dissolution of atherosclerotic plaque was noted”.

For `ClCCl` [dichloromethane], the “dissolution of atherosclerotic plaque” value (about 92% by weight, about 8% base composition) is reported as “showed effectiveness in dissolving atherosclerotic plaque” and the “dissolution of atherosclerotic plaque” value (about 99.1% by weight, about 0.9% base composition) is “dissolution of atherosclerotic plaque was noted”.
